In patent EP0199888B1, “Control of heme and iron concentrations in body tissues” (THE ROCKEFELLER UNIVERSITY, priority 1985, dated 1986):

How the values were obtained:
[1] = tested on: bile duct cannulated rats; test: Output of biliary iron by graphite furnace atomic absorption analysis; assay type: in vivo; settings: after administration of Sn-PP; representative study, typical of all animals studied
[2] = tested on: bile duct cannulated rats; test: Excretion of heme and bilirubin in bile after infusion of heat-damaged erythrocytes; assay type: in vivo
[3] = tested on: bile duct cannulated rats; test: Excretion of heme and bilirubin in bile after infusion of exogenous heme

C=Cc1c2[n-]c(c1C)/C=c1\[n-]/c(c(C)c1C=C)=C\c1[n-]c(c(CCC(=O)O)c1C)C=c1[n-]/c(c(C)c1CCC(=O)O)=C\2.[Sn+4] [Sn-PP, tin protoporphyrin-IX]
output of biliary iron [1]: incresed markedly
biliary heme excretion ([2]; 8 rats, heat-damaged erythrocytes i.v. bolus (equivalent to 8.5 umol heme/kg b.w.) plus Sn-PP 10 umol/kg b.w. i.v., pyridine hemochromogen method): prompt and marked increase
combined amounts of heme plus bilirubin in bile ([2]; heat-damaged erythrocytes plus Sn-PP 10 umol/kg b.w. i.v., average, similar in the control group): about 50 % of the dose of heme administered
increase in biliary bilirubin output ([2]; heat-damaged erythrocytes plus Sn-PP 10 umol/kg b.w. i.v., in all but one Sn-PP treated animal): greatly diminished
biliary heme excretion ([3]; 5 rats, heme 6.1 µmol/kg b.w. i.v. bolus plus Sn-PP 10 µmol/kg b.w. i.v. at the same time): prompt and marked increase
amounts of heme excreted in bile relative to control animals treated with heme alone ([3]; heme 6.1 µmol/kg b.w. plus Sn-PP 10 µmol/kg b.w. i.v.): 3-4 fold
increase in biliary bilirubin resulting from the infusion of heme ([3]; heme 6.1 µmol/kg b.w. plus Sn-PP 10 µmol/kg b.w. i.v., all animals): diminished
amounts of heme excreted in bile ([3]; heme 6.1 µmol/kg b.w. plus Sn-PP 10 µmol/kg b.w. i.v., mean): 51 % of the dose of heme injected

C=CC1=C(C)c2cc3[n-]c(cc4[n-]c(cc5nc(cc1n2)C(C)=C5C=C)c(C)c4CCC(=O)O)c(CCC(=O)O)c3C.[Fe+2] [heme, ferroprotoporphyrin IX]
total amount of exogenous heme recovered in the bile as both heme and bilirubin ([3]; heme alone, 6.1 µmol/kg b.w. i.v. bolus, average): 32 % of the dose administered
total amount of heme excreted in the bile ([3]; heme alone, 6.1 µmol/kg b.w. i.v. bolus, average of 5 rats): 14 % of the dose injected
